In patent US6608069B1, “Phenyl xanthine derivatives” (SmithKline Beecham Corporation, priority 1998, dated 2003):

What was measured:
[1] = system: cytokine-stimulated human umbilical vein endothelial cells; experiment: Cell Adhesion Assay: adherence of fluorescently-labelled leukocytes to endothelial cell monolayers; type: cell-based; settings: inhibition of cytokine-stimulated adhesion minus basal adhesion; calcein-AM labelled leukocytes on HUVEC monolayers
Summary of the method: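 HUVEC monolayers were stimulated with cytokine, and adhesion of calcein-AM-labelled leukocytes was quantified by fluorescence. Inhibition was calculated on cytokine-stimulated adhesion after subtracting basal adhesion of unstimulated cells.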

male Lewis rats = experiment: Carrageenan Pleurisy Assay; type: in vivo; settings: carrageenan 0.075 mg/rat, harvested four hours after carrageenan; for % Inhibition Cells: inflammatory cells (neutrophils) in pleural exudate vs vehicle control; for % Inhibition Exudate: pleural edema (exudate) vs vehicle control
Experimental: 2) Carrageenan Pleurisy Assay
The antiinflammatory activity of compounds of the invention was determined by the procedure of Vinegar, R, et al., Proc. Soc. Exp. Biol. Med., 1981, 168, 24-32, using male Lewis rats of 150±20 grams. The carrageenan dose was 0.075 mg/rat. Pleural exudate was harvested four hours after injection of carrageenan. Acute antiinflammatory activity was determined by inhibition of pleural edema and inflammatory cells (neutrophils) from a negative (vehicle) control group.

| SMILES | IC50 [1] [µM] | % Inhibition Cells (male Lewis rats) [%] | % Inhibition Exudate (male Lewis rats) [%] |
| --- | --- | --- | --- |
| COCCOCCOCCOCCOCCOCCOCCOCCOCCN(C)C(=O)/C=C/c1ccc(-c2nc3c(=O)n(CC4CCCCC4)c(=O)n(CC4CCCCC4)c3[nH]2)cc1 [Example 68, (E)-4-(1,3-Bis(cyclohexylmethyl)-1,2,3,6-tetrahydro-2,6-dioxo-9H-purin-8-yl) cinnamic Acid N-methyl Nonaethylene Glycol Methyl Ether Amide] | 0.072 ± 0.019 | 92 | 80 |
| COCCOCCOCCOCCOCCOCCOCCOCCOCCOC(=O)/C=C/c1ccc(-c2nc3c(=O)n(Cc4ccccc4)c(=O)n(Cc4ccccc4)c3[nH]2)cc1 [Example 34] | < 0.0001 | 20 | 59 |
| CCCn1c(=O)c2nc(-c3ccc(/C=C/C(=O)NCCOCCOCCOCCOCCOCCOCCOCCOCCOC)cc3)[nH]c2n(CC2CCCCC2)c1=O [Example 73, (E)-4-((1-propyl-3-cyclohexylmethyl)-1,2,3,6-tetrahydro-2,6-dioxo-9H-purin-8-yl)cinnamic Acid Nonaethylene Glycol Methyl Ether Amide] | > 1 | 0 | 0 |
| CCCn1c(=O)n(CC2CCCCC2)c(=O)c2nc(-c3ccc(/C=C/C(=O)OCCOCCOCCOCCOCCOCCOCCOCCOCCOC)cc3)[nH]c21 [Example 49, (E)-4-((1-cyclohexylmethyl-3-propyl)-1,2,3,6-tetrahydro-2,6-dioxo-9H-purin-8-yl)cinnamic Acid Nonaethylene Glycol Methyl Ether Ester] | 0.013 ± 0.009 | 28 | 53 |
